What was measured:
Assay type in all cases: in vivo
[1] = system: Mediterranean Fruitfly (Ceratitis capitata); test: B.6 Mediterranean Fruitfly (Ceratitis capitata), microtiter plate insect diet; conditions: 120 h, 800 ppm, sprayed onto insect diet, 5 days, in comparison with untreated controls, read-out: mortality (egg and larval)
Experimental: B.6 Mediterranean Fruitfly (Ceratitis capitata)
For evaluating control of Mediterranean fruitfly (Ceratitis capitata) the test unit consisted of microtiter plates containing an insect diet and 50-80 C. capitata eggs.
(§1) The compounds were formulated using a solution containing 75% v/v water and 25% v/v DMSO. Different concentrations of formulated compounds were sprayed onto the insect diet at 5 μl, using a custom built micro atomizer, at two replications.
(§2) After application, microtiter plates were incubated at about 28±1° C. and about 80±5% relative humidity for 5 days. Egg and larval mortality was then visually assessed.

[2] = system: Orchid thrips (dichromothrips corbetti); test: B.12 Orchid thrips (dichromothrips corbetti), floral-immersion technique; conditions: adult thrips on dipped orchid petals, 72 hours after treatment, in comparison with untreated controls
Experimental: B.12 Orchid thrips (dichromothrips corbetti)
Dichromothrips corbetti adults used for bioassay were obtained from a colony maintained continuously under laboratory conditions. For testing purposes, the test compound is diluted in a 1:1 mixture of acetone:water (vol:vol), plus Kinetic HV at a rate of 0.01% v/v.
Thrips potency of each compound was evaluated by using a floral-immersion technique. All petals of individual, intact orchid flowers were dipped into treatment solution and allowed to dry in Petri dishes. Treated petals were placed into individual resealable plastic along with about 20 adult thrips. All test arenas were held under continuous light and a temperature of about 28° C. for duration of the assay. After 3 days, the numbers of live thrips were counted on each petal. The percent mortality was recorded 72 hours after treatment.

[3] = system: Tobacco Budworm (Heliothis virescens); test: B.7 Tobacco Budworm (Heliothis virescens) I, microtiter plate insect diet; conditions: 120 h, 800 ppm, sprayed onto insect diet, 5 days, in comparison with untreated controls, read-out: mortality (egg and larval)
Experimental: B.7 Tobacco Budworm (Heliothis virescens) I
For evaluating control of tobacco budworm (Heliothis virescens) the test unit consisted of 96-well-microtiter plates containing an insect diet and 15-25 H. virescens eggs. The compounds were formulated using a solution containing 75% v/v water and 25% v/v DMSO. Different concentrations of formulated compounds were sprayed onto the insect diet at 10 μl, using a custom built micro atomizer, at two replications.
as §2

[4] = system: Diamond Back Moth (Plutella xylostella); test: B.1 Diamond Back Moth (Plutella xylostella), cabbage leaf dip; conditions: foliar, 500 ppm, 3rd instar larvae on dipped cabbage leaves, 72 hours after treatment, in comparison with untreated controls, read-out: mortality
Experimental: B.1 Diamond Back Moth (Plutella xylostella)
The active compound was dissolved at the desired concentration in a mixture of 1:1 (vol:vol) distilled water:aceteone. Surfactant (Kinetic HV) was added at a rate of 0.01% (vol/vol). The test solution was prepared at the day of use.
Leaves of cabbage were dipped in test solution and air-dried. Treated leaves were placed in petri dishes lined with moist filter paper and inoculated with ten 3rd instar larvae. Mortality was recorded 72 hours after treatment. Feeding damages were also recorded using a scale of 0-100%.

[5] = system: Boll Weevil (Anthonomus grandis); test: B.3 Boll Weevil (Anthonomus grandis), microtiter plate insect diet; conditions: 120 h, 800 ppm, sprayed onto insect diet, 5 days, in comparison with untreated controls, read-out: mortality (egg and larval)
Experimental: B.3 Boll Weevil (Anthonomus grandis)
For evaluating control of boll weevil (Anthonomus grandis) the test unit consisted of 96-well-microtiter plates containing an insect diet and 5-10 A. grandis eggs.
as §1
After application, microtiter plates were incubated at about 25±1° C. and about 75±5% relative humidity for 5 days. Egg and larval mortality was then visually assessed.

FC(F)(F)Oc1ccc(-c2onc3c2CCc2cc(/C=N/NC(=S)Nc4c(Cl)cc(Cl)cc4Cl)ccc2-3)cc1 [C-9, 1-(2,4,6-trichlorophenyl)-3-[(E)-[3-[4-(trifluoromethoxy)phenyl]-4,5-dihydrobenzo[g][2,1]benzoxazol-7-yl]methyleneamino]thiourea]
≥ 75%: mortality at 800 ppm [1] | mortality at 500 ppm [2]

Cc1ccc(Cl)cc1NC(=S)N/N=C/c1ccc2c(ccc3c2ncn3-c2ccc(OC(F)(F)F)cc2)c1 [C-21, 1-(5-chloro-2-methyl-phenyl)-3-[(E)-[3-[4-(trifluoromethoxy)phenyl]benzo[e]benzimidazol-7-yl]methyleneamino] thiourea]
≥ 75%: mortality at 800 ppm [3] | mortality at 500 ppm [4] | mortality at 800 ppm [1] | mortality at 500 ppm [2] | mortality at 800 ppm [5]

FC(F)(F)Oc1ccc(-n2cnc3c4ccc(/C=N/NC(=S)Nc5cccc6ccccc56)cc4ccc32)cc1 [C-29, 1-(2H-naphthalen-1-ylidene)-3-[[3-[4-(trifluoromethoxy)phenyl]-9aH-benzo[e]benzimidazol-7-ylidene]methylimino] thiourea]
≥ 75%: mortality at 800 ppm [3] | mortality at 500 ppm [4] | mortality at 800 ppm [1] | mortality at 800 ppm [5]

FC(F)(F)Oc1ccc(-n2cnc3c4ccc(/C=N/NC(=S)Nc5ccccc5Cl)cc4ccc32)cc1 [C-30, 3-(2-chlorophenyl)-1-[[3-[4-(trifluoromethoxy)phenyl]-8H-benzo[e]benzimidazol-7-ylidene]methylimino] isothiourea]
≥ 75%: mortality at 500 ppm [4] | mortality at 500 ppm [2]

Cc1cc(Cl)ccc1NC(=S)N/N=C/c1ccc2c(ccc3c2ncn3-c2ccc(OC(F)(F)F)cc2)c1 [C-38, 1-(4-chloro-2-methyl-phenyl)-3-[(E)-[3-[4-(trifluoromethoxy)phenyl]benzo[e]benzimidazol-7-yl]methyleneamino] thiourea]
≥ 75%: mortality at 800 ppm [3] | mortality at 500 ppm [4] | mortality at 800 ppm [1] | mortality at 500 ppm [2] | mortality at 800 ppm [5]

CC(C)c1ccccc1NC(=S)N/N=C/c1ccc2c(ccc3c2ncn3-c2ccc(OC(F)(F)F)cc2)c1 [C-45, 1-(2-isopropylphenyl)-3-[[3-[4-(trifluoromethoxy)phenyl]-3aH-benzo[e]benzimidazol-7-ylidene]methylimino] thiourea]
≥ 75%: mortality at 800 ppm [3] | mortality at 500 ppm [4] | mortality at 800 ppm [1] | mortality at 500 ppm [2] | mortality at 800 ppm [5]

Cc1cccc(C)c1NC(=S)N/N=C/c1ccc2c(ccc3c2cnn3-c2ccc(OC(F)(F)F)cc2)c1 [C-46, (E)-N-(2,6-dimethylphenyl)-2-((3-(4-(trifluoromethoxy)phenyl)-3H-benzo[e]indazol-7-yl)methylene)hydrazinecarbothioamide]
≥ 75%: mortality at 800 ppm [3] | mortality at 500 ppm [4] | mortality at 800 ppm [1] | mortality at 800 ppm [5]

CCc1ccccc1NC(=S)N/N=C/c1ccc2c(ccc3c2cnn3-c2ccc(OC(F)(F)F)cc2)c1 [C-50, 1-(2-ethylphenyl)-3-[[3-[4-(trifluoromethoxy)phenyl]-5H-benzo[e]indazol-7-ylidene]methylimino]thiourea]
≥ 75%: mortality at 800 ppm [3] | mortality at 500 ppm [4] | mortality at 800 ppm [1] | mortality at 800 ppm [5]

FC(F)(F)Oc1ccc(-n2cnc3c4ccc(/C=N/NC(=S)Nc5c(Br)cccc5Br)cc4ccc32)cc1 [C-66, 1-(2,6-dibromophenyl)-3-[(E)-[3-[4-(trifluoromethoxy)phenyl]benzo[e]benzimidazol-7-yl]methyleneamino] thiourea]
≥ 75%: mortality at 800 ppm [3] | mortality at 500 ppm [4] | mortality at 800 ppm [1] | mortality at 500 ppm [2] | mortality at 800 ppm [5]

FC(F)(F)Oc1ccc(-n2cnc3c4ccc(/C=N/NC(=S)Nc5ccccc5Br)cc4ccc32)cc1 [C-67, 1-(2-bromophenyl)-3-[[3-[4-(trifluoromethoxy)phenyl]-5H-benzo[e]benzimidazol-7-ylidene]methylimino] thiourea]
≥ 75%: mortality at 800 ppm [3] | mortality at 500 ppm [4] | mortality at 800 ppm [1] | mortality at 800 ppm [5]

CCc1cccc(C)c1NC(=S)N/N=C(\C)c1ccc2c(ccc3c2ncn3-c2ccc(OC(F)(F)F)cc2)c1 [C-82, 1-(2-ethyl-6-methyl-phenyl)-3-[(E)-1-[3-[4-(trifluoromethoxy)phenyl]benzo[e]benzimidazol-7-yl]ethylideneamino]thiourea]
≥ 75%: mortality at 500 ppm [4] | mortality at 500 ppm [2]

Cc1cccc(Cl)c1NC(=S)N/N=C/c1ccc2c(ccc3c(-c4ccc(OC(F)(F)F)cc4)n(C)nc32)c1 [C-91, 1-(2-chloro-6-methyl-phenyl)-3-[(E)-[2-methyl-3-[4-(trifluoromethoxy)phenyl]benzo[g]indazol-7-yl]methyleneamino] thiourea]
≥ 75%: mortality at 800 ppm [3] | mortality at 500 ppm [4] | mortality at 800 ppm [1] | mortality at 800 ppm [5]

Cn1nc2c(ccc3cc(/C=N/NC(=S)Nc4c(Br)cccc4Br)ccc32)c1-c1ccc(OC(F)(F)F)cc1 [C-98, 1-(2,6-dibromophenyl)-3-[(E)-[2-methyl-3-[4-(trifluoromethoxy)phenyl]benzo[g]indazol-7-yl]methyleneamino] thiourea]
≥ 75%: mortality at 800 ppm [3] | mortality at 500 ppm [4] | mortality at 800 ppm [1] | mortality at 800 ppm [5]

Cn1nc2c(ccc3cc(/C=N/NC(=S)Nc4c(Cl)cccc4Cl)ccc32)c1-c1ccc(OC(F)(F)F)cc1 [C-99, 1-(2,6-dichlorophenyl)-3-[(E)-[2-methyl-3-[4-(trifluoromethoxy)phenyl]benzo[g]indazol-7-yl]methyleneamino]thiourea]
≥ 75%: mortality at 800 ppm [3] | mortality at 800 ppm [1] | mortality at 500 ppm [2] | mortality at 800 ppm [5]

Cc1cccnc1NC(=S)N/N=C/c1ccc2c(ccc3c(-c4ccc(OC(F)(F)F)cc4)n(C)nc32)c1 [C-101, 1-(3-methyl-2-pyridyl)-3-[(E)-[2-methyl-3-[4-(trifluoromethoxy)phenyl]benzo[g]indazol-7-yl]methyleneamino]thiourea]
≥ 75%: mortality at 800 ppm [3] | mortality at 500 ppm [4] | mortality at 800 ppm [1] | mortality at 500 ppm [2] | mortality at 800 ppm [5]

From patent US9497970B2, “Pesticide compounds” (priority 2013, dated 2016)
